This is an account of results in US10174009B2, “Tricyclic sulphonamide compounds and methods of making and using same” (Zafgen, Inc., priority 2012, dated 2019).

For the experiment, the target named is T1, recombinant human MetAP2 (Homo sapiens, UniProt P50579).
T1 construct: made in house; host or cells: Sf9 insect cells
T1 sequence (P50579 whole entry): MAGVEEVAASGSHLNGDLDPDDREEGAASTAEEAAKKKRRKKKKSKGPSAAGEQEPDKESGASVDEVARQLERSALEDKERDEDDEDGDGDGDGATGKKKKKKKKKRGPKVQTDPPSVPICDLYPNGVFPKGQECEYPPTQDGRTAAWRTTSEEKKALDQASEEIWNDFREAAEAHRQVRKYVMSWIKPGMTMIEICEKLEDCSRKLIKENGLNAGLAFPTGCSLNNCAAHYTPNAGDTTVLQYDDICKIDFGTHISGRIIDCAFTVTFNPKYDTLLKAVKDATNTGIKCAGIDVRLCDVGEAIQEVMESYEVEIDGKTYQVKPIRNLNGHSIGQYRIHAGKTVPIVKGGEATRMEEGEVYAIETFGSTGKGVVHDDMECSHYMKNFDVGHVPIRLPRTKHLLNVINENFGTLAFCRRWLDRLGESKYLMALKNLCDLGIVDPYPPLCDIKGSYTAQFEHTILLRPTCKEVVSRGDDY
In words: Inhibition of recombinant human MetAP2 activity (MAS substrate, amino acid oxidase/Amplex red fluorescence). It counts as biochemical. The conditions noted are these: manganese enzyme, 30 minutes at 25° C., pH 7.5, 0.75 mM MAS substrate, 1% DMSO. On the procedure: Compounds are tested for their capacity to inhibit recombinant human MetAP2 activity using the following assay.
Human recombinant MetAP2 expressed in Sf9 cells followed by affinity purification and EDTA treatment to remove endogenous active site cation was dialysed against MnCl2 to produce the manganese enzyme used in the assay. The assay was carried out for 30 minutes at 25° C. in 50 mM HEPES buffer containing 100 mM NaCl, pH 7.5 the presence of 0.75 mM Methionine-Alanine-Serine (MAS) substrate and 50 μg/ml amino acid oxidase using a dilution of purified MetAP2 giving >3-fold signal:noise. Cleavage of the substrate by MetAP2 and oxidation of free methionine by amino acid oxidase was detected and quantified using fluorescence generated by Amplex red (10-acetyl-3,7-dihydroxyphenoxazine) in combination with horseradish peroxidase which detects H2O2 released during the oxidation step. The fluorescent signal was detected using a multiwell fluorimeter. Compounds were diluted in DMSO prior to addition to assay buffer, the final DMSO concentration in the assay being 1%.
The IC50 is defined as the concentration at which a given compound achieves 50% inhibition of control. IC50 values are calculated using the XLfit software package (version 2.0.5).
A word on the IC50: it is the midpoint of a concentration-inhibition curve. In the case of `CCN(CC)CCCc1cc(F)ccc1S(=O)(=O)Nc1cc(F)c2c(c1C(=O)O)OCC1CC21` (racemic) [(1aRS,7bSR)-5-[2-(3-Diethylaminopropyl)-4-fluorobenzenesulfonylamino]-7-fluoro-1,1a,2,7b-tetrahydrocyclopropa[c]chromene-4-carboxylic acid], the IC50 was above 50 nM.

Consider `CCN(CC)C/C=C\c1cc(F)ccc1S(=O)(=O)Nc1c(F)cc2c(c1C(=O)O)OCC1CC21` (racemic) [(1aRS,7bSR)-5-[2-((Z)-3-Diethylaminoprop-1-enyl)-4-fluorobenzene-sulfonylamino]-6-fluoro-1,1a,2,7b-tetrahydrocyclopropa[c]chromene-4-carboxylic acid], for which the IC50 is above 50 nM.

For `CCN1CC[C@@H](Cc2cc(F)ccc2S(=O)(=O)Nc2cc(F)c3c(c2C(=O)O)OCC2CC32)C1` (mixture of isomers) [(1aRS,7bSR)-5-[2-((R)-1-Ethylpyrrolidin-3-ylmethyl)-4-fluorobenzene-sulfonylamino]-7-fluoro-1,1a,2,7b-tetrahydrocyclopropa[c]chromene-4-carboxylic acid], the IC50 is below 50 nM.

With `CCN(CC)C/C=C\c1cc(F)ccc1S(=O)(=O)Nc1cc(F)c2c(c1C(=O)O)OCC1CC21` (racemic) [(1aRS,7bSR)-5-[2-((Z)-3-Diethylaminoprop-1-enyl)-4-fluorobenzenesulfonyl-amino]-7-fluoro-1,1a,2,7b-tetrahydrocyclopropa[c]chromene-4-carboxylic acid], the IC50 is below 50 nM.
